Results: ChEMBL document CHEMBL1201862, “PubChem BioAssay data set” (2004)
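48-hour exposure; five concentrations; linearly interpolated endpoints. GI50 marks 50% less growth.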 Activity calls are given as the source filed them. No stated cut-off is given here; in the data, active = GI50 up to about 1.1 µM and inactive = higher.

Experiments:
Test in all cases: NCI tumour cell line growth inhibition, 48 h
Malme-3M = test system: Malme-3M
SK-MEL-28 = test system: SK-MEL-28
MOLT-4 = test system: MOLT-4
OVCAR-5 = test system: OVCAR-5
SF-268 = test system: SF-268
SK-OV-3 = test system: SK-OV-3
ACHN = test system: ACHN
SF-539 = test system: SF-539
SK-MEL-2 = test system: SK-MEL-2
MDA-N = test system: MDA-N
OVCAR-4 = test system: OVCAR-4
A549 = test system: A549
CCRF-CEM = test system: CCRF-CEM
UACC-257 = test system: UACC-257
SNB-75 = test system: SNB-75
UO-31 = test system: UO-31
HCT-15 = test system: HCT-15
NCI-H226 = test system: NCI-H226
SN12C = test system: SN12C
NCI-H460 = test system: NCI-H460
Hs-578T = test system: Hs-578T
MCF7 = test system: MCF7
RXF 393 = test system: RXF 393
K562 = test system: K562
SR = test system: SR
OVCAR-3 = test system: OVCAR-3
HOP-62 = test system: HOP-62
UACC-62 = test system: UACC-62
EKVX = test system: EKVX
786-0 = test system: 786-0
HCT-116 = test system: HCT-116
TK-10 = test system: TK-10
MDA-MB-435 = test system: MDA-MB-435
M14 = test system: M14
SK-MEL-5 = test system: SK-MEL-5
KM12 = test system: KM12
RPMI-8226 = test system: RPMI-8226
U-251 = test system: U-251
COLO 205 = test system: COLO 205
SNB-19 = test system: SNB-19
T47D = test system: T47D
LOX IMVI = test system: LOX IMVI
NCI-H23 = test system: NCI-H23
HOP-92 = test system: HOP-92
MDA-MB-231 = test system: MDA-MB-231
CAKI-1 = test system: CAKI-1
BT-549 = test system: BT-549
NCI-H522 = test system: NCI-H522
OVCAR-8 = test system: OVCAR-8
HCC 2998 = test system: HCC 2998
HT-29 = test system: HT-29
NCI/ADR-RES = test system: NCI/ADR-RES
HL-60 = test system: HL-60
SF-295 = test system: SF-295
PC-3 = test system: PC-3
DU-145 = test system: DU-145
A498 = test system: A498
IGROV-1 = test system: IGROV-1
SW-620 = test system: SW-620

With `COc1c(C)c2c(c(=O)c3c(C)cccc3n2C)c2c1c(=O)c1c(C)cccc1n2C` the GI50 (Malme-3M) was > 10 µM (inactive), the GI50 (SK-MEL-28) was > 10 µM (inactive) and the GI50 (MOLT-4) was > 10 µM (inactive). The GI50 (OVCAR-5) was > 10 µM (inactive), the GI50 (SF-268) was > 10 µM (inactive) and the GI50 (SK-OV-3) was > 10 µM (inactive). For the same molecule, the GI50 (ACHN) was > 10 µM (inactive), the GI50 (SF-539) was > 10 µM (inactive) and the GI50 (SK-MEL-2) was > 10 µM (inactive). The GI50 (MDA-N) was > 10 µM (inactive), the GI50 (OVCAR-4) was > 10 µM (inactive) and the GI50 (A549) was > 10 µM (inactive). The GI50 (CCRF-CEM) was > 10 µM (inactive), the GI50 (UACC-257) was > 10 µM (inactive) and the GI50 (SNB-75) was > 10 µM (inactive). For the same molecule, the GI50 (UO-31) was > 10 µM (inactive), the GI50 (HCT-15) was over 10 µM and the GI50 (NCI-H226) was > 10 µM (inactive). For the same molecule, the GI50 (SN12C) was > 10 µM (inactive), the GI50 (NCI-H460) was 5.62 µM (inactive) and the GI50 (Hs-578T) was > 10 µM (inactive). For the same molecule, the GI50 (MCF7) was > 10 µM (inactive), the GI50 (RXF 393) was > 10 µM (inactive) and the GI50 (K562) was > 10 µM (inactive). The GI50 (SR) was > 10 µM (inactive), the GI50 (OVCAR-3) was > 10 µM (inactive) and the GI50 (HOP-62) was > 10 µM (inactive). For the same molecule, the GI50 (UACC-62) was > 10 µM (inactive), the GI50 (EKVX) was > 10 µM (inactive) and the GI50 (786-0) was > 10 µM (inactive). The GI50 (HCT-116) was > 10 µM (inactive), the GI50 (TK-10) was > 10 µM (inactive) and the GI50 (MDA-MB-435) was > 10 µM (inactive). For the same molecule, the GI50 (M14) was > 10 µM (inactive), the GI50 (SK-MEL-5) was > 10 µM (inactive) and the GI50 (KM12) was > 10 µM (inactive). For the same molecule, the GI50 (RPMI-8226) was 9.27 µM (inactive), the GI50 (U-251) was > 10 µM (inactive) and the GI50 (COLO 205) was > 10 µM (inactive). The GI50 (SNB-19) was > 10 µM (inactive), the GI50 (T47D) was > 10 µM (inactive) and the GI50 (LOX IMVI) was > 10 µM (inactive). The GI50 (NCI-H23) was > 10 µM (inactive), the GI50 (HOP-92) was > 10 µM (inactive) and the GI50 (MDA-MB-231) was > 10 µM (inactive). For the same molecule, the GI50 (CAKI-1) was > 10 µM (inactive), the GI50 (BT-549) was > 10 µM (inactive) and the GI50 (NCI-H522) was > 10 µM (inactive). The GI50 (OVCAR-8) was 9.66 µM (inactive), the GI50 (HCC 2998) was > 10 µM (inactive) and the GI50 (HT-29) was > 10 µM (inactive). For the same molecule, the GI50 (NCI/ADR-RES) was 9.18 µM (inactive), the GI50 (HL-60) was > 10 µM (inactive) and the GI50 (SF-295) was > 10 µM (inactive). The GI50 (PC-3) was > 10 µM (inactive), the GI50 (DU-145) was > 10 µM (inactive) and the GI50 (A498) was > 10 µM (inactive). The GI50 (IGROV-1) was > 10 µM (inactive).
In the case of `CCOC(=O)c1ccc2nc(-c3ccc(S(=O)(=O)F)cc3)cc(O)c2c1`, the GI50 (Malme-3M) is reported as 25.1 µM (inactive), the GI50 (SK-MEL-28) is reported as 59.6 µM (inactive) and the GI50 (MOLT-4) is reported as 36.8 µM (inactive). The GI50 (OVCAR-5) was > 100 µM (inactive), the GI50 (SF-268) was 60.8 µM (inactive) and the GI50 (SK-OV-3) was 38.9 µM (inactive). The GI50 (ACHN) was 24.2 µM (inactive), the GI50 (SF-539) was 56.5 µM (inactive) and the GI50 (SK-MEL-2) was 27.5 µM (inactive). For the same molecule, the GI50 (MDA-N) was 33.5 µM (inactive), the GI50 (OVCAR-4) was 65.3 µM (inactive) and the GI50 (A549) was 53.3 µM (inactive). For the same molecule, the GI50 (CCRF-CEM) was 30.7 µM (inactive), the GI50 (UACC-257) was 51.8 µM (inactive) and the GI50 (SNB-75) was 25.2 µM (inactive). The GI50 (UO-31) was 71 µM (inactive), the GI50 (HCT-15) was 31.6 µM and the GI50 (NCI-H226) was > 100 µM (inactive). The GI50 (SN12C) was 43.9 µM (inactive), the GI50 (NCI-H460) was 34.4 µM (inactive) and the GI50 (Hs-578T) was 54.8 µM (inactive). The GI50 (MCF7) was 30.1 µM (inactive), the GI50 (SW-620) was 76.7 µM (inactive) and the GI50 (RXF 393) was 31.9 µM (inactive). The GI50 (K562) was 42.8 µM (inactive), the GI50 (SR) was 35.5 µM (inactive) and the GI50 (OVCAR-3) was 19.6 µM (inactive). For the same molecule, the GI50 (HOP-62) was 32.5 µM (inactive), the GI50 (UACC-62) was 24 µM (inactive) and the GI50 (EKVX) was > 100 µM (inactive). The GI50 (786-0) was 36.4 µM (inactive), the GI50 (HCT-116) was 23.1 µM (inactive) and the GI50 (TK-10) was 27.7 µM (inactive). The GI50 (MDA-MB-435) was 40.9 µM (inactive), the GI50 (M14) was 40.9 µM (inactive) and the GI50 (SK-MEL-5) was 50.2 µM (inactive). The GI50 (KM12) was 29.8 µM (inactive), the GI50 (RPMI-8226) was 45.9 µM (inactive) and the GI50 (U-251) was 34.9 µM (inactive). For the same molecule, the GI50 (COLO 205) was 58.9 µM (inactive), the GI50 (SNB-19) was > 100 µM (inactive) and the GI50 (T47D) was 25.1 µM (inactive). For the same molecule, the GI50 (LOX IMVI) was 36.5 µM (inactive), the GI50 (NCI-H23) was 21.6 µM (inactive) and the GI50 (HOP-92) was > 100 µM (inactive). The GI50 (MDA-MB-231) was 36.3 µM (inactive), the GI50 (CAKI-1) was 39.9 µM (inactive) and the GI50 (BT-549) was 37.8 µM (inactive). For the same molecule, the GI50 (NCI-H522) was 15.8 µM (inactive), the GI50 (OVCAR-8) was 61.2 µM (inactive) and the GI50 (HCC 2998) was 14.5 µM (inactive). For the same molecule, the GI50 (HT-29) was 62.1 µM (inactive), the GI50 (NCI/ADR-RES) was > 100 µM (inactive) and the GI50 (HL-60) was 26.7 µM (inactive). The GI50 (SF-295) was 39.8 µM (inactive), the GI50 (PC-3) was 50.6 µM (inactive) and the GI50 (DU-145) was 48.9 µM (inactive). For the same molecule, the GI50 (A498) was 14.8 µM (inactive) and the GI50 (IGROV-1) was 48.8 µM (inactive).
